Experimental data as given in US20240166626A1, “Compounds and Methods for Preventing, Treating, or Ameliorating Airway Disease” (THOMAS JEFFERSON UNIVERSITY, priority 2021, published 2024).

Biological target: FLAG-β2AR (Homo sapiens, UniProt P07550)
Experiment: Receptor internalization, cell surface ELISA, HEK 293 FLAG-β2AR
Assay type: cell-based
Conditions: 10 μM DFPQ, ISO up to 60 min, FIG. 4A
Method: FIGS. 4A-4F: DFPQ inhibits internalization of the β2AR and protects from agonist induced desensitization in cell and tissue models. FIG. 4A: Effect of DFPQ on agonist-promoted internalization of the β2AR. […] Cells were fixed and receptor surface expression was measured by ELISA. […] Cells were lysed and cAMP production was measured by ELISA. […] FIG. 4C: […] Airway contractility was measured by luminal area of bronchioles by microscopy at various times. FIG. 4D: […] HASM cells were scratched and incubated overnight in PDGF containing serum free media. Cells were imaged to evaluate migration into the scratched area. […] Cells were read every three minutes for 18 minutes on a PolarStar Optima plate reader (BMG) to establish peak signal. […] Luminescence was determined at room temperature (23-25° C.) on a PolarStar Optima plate reader (BMG). […] Relative assay bias was calculated from the ratio of normalized cAMP and arrestin recruitment responses. […] BRET was measured using a Tecan Infinite F500 microplate reader. […] Bound [35 S]GTPγS was collected by rapid filtration on GF/B filters, washed 4 times with 4 ml of cold GTPγS wash buffer and analyzed by liquid scintillation counting. […] Immunoprecipitated proteins were separated by SDS-PAGE and analyzed by western blot using a β2AR C-terminal tail or phospho-specific antibody. […] Band intensity was measured by densitometry using ImageJ. […]

FLAG-β2AR, sequence (P07550 whole entry): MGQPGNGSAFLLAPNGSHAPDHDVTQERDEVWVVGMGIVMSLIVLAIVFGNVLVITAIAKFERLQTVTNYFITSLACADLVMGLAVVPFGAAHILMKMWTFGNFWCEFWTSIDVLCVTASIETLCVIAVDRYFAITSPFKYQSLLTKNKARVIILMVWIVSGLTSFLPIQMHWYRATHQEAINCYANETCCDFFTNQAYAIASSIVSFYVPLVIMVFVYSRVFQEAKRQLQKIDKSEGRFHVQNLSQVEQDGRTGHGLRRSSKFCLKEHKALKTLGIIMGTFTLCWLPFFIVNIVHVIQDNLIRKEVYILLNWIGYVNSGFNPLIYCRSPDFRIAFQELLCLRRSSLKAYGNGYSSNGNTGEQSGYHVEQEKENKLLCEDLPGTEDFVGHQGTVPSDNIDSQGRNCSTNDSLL

agonist-induced internalization of the receptor: fully inhibited
SMILES: Fc1ccc(Nc2nc(NC3CCCCC3)c3ccccc3n2)cc1F [DFPQ, N^4-cyclohexyl-N^2-(3,4-difluorophenyl)quinazoline-2,4-diamine]
